Data taken from article PMC6123015 (Biochemistry, 2018).

Target: T1, macrophage migration inhibitory factor-1 (MIF-1) (Homo sapiens, UniProt P14174)
T1 sequence (P14174 2-115): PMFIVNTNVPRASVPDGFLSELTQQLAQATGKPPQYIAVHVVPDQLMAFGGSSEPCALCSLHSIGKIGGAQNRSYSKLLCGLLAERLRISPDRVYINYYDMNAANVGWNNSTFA
Experiment: HPP tautomerase inhibition kinetics with purified protein
Format: biochemical

- Ki: 431 ± 37 µM
Compound: O=C(O)c1cccc(-c2cc(C(=O)O)ncc2C(=O)O)c1 [4-CPPC, 4-(3-Carboxyphenyl)-2,5pyridinedicarboxylic acid]
